Experimental data taken from ChEMBL document CHEMBL1136854, “Synthesis and pharmacological evaluation of aminopyrimidine series of 5-HT1A partial agonists” (Bioorg Med Chem Lett, 2009).

Experiment: in vitro
Settings: human, liver microsomes

For `c1cc(C2CCCN(CCc3cscn3)C2)nc(NC2CC2)n1` (centres undefined), the CLint scaled was 0.9 L/h/kg.

In the case of `O=C1CC2(CCCC2)CC(=O)N1CCCCN1CCN(c2ncccn2)CC1` [BUSPIRONE], the CLint scaled (CL) is reported as 8.88 L/h/kg.

In the case of `Fc1cccc2c(CCN3CCCC(c4ccnc(NC5CC5)n4)C3)c[nH]c12` (centres undefined), the CLint scaled (CL) is reported as 1.68 L/h/kg.

`Cc1[nH]c2ccc(Cl)cc2c1CCN1CCCC(c2ccnc(NC3CC3)n2)C1` (centres undefined) gave a CLint scaled (CL) of 8.1 L/h/kg.
